From paper PMC3961306, “Comparison of the Cancer Gene Targeting and Biochemical Selectivities of All Targeted Kinase Inhibitors Approved for Clinical Use” (PLoS ONE, 2014)

Experiments:
Experiment in all cases: Kinase profiling in a biochemical assay panel (mobility shift assays and ELISA), %-inhibition at 1 μM; selectivity entropy
[1] = target: panel of more than 300 wild-type and mutant kinases (313 kinase panel) (Homo sapiens, UniProt P49759); details: kinase CLK1; 1 μM compound
[2] = target: T1, panel of more than 300 wild-type and mutant kinases (313 kinase panel) (Homo sapiens, UniProt Q9NWZ3)
T1 sequence (Q9NWZ3 1-460): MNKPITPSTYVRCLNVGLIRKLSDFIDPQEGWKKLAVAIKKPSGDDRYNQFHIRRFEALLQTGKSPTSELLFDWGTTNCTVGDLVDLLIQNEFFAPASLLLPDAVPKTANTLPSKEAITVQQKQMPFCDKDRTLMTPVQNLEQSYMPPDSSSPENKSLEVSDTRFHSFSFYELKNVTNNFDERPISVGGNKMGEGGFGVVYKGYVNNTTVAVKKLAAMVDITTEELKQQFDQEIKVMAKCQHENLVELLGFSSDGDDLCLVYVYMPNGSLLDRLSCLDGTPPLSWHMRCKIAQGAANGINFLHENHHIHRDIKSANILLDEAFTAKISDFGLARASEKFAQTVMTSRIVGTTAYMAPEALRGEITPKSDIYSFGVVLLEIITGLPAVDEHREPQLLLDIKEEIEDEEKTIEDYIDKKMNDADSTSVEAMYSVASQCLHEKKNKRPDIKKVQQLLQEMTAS

[3] = target: T2, panel of more than 300 wild-type and mutant kinases (313 kinase panel) (Homo sapiens, UniProt O15264); details: kinase p38δ; 1 μM
T2 sequence (O15264 1-365): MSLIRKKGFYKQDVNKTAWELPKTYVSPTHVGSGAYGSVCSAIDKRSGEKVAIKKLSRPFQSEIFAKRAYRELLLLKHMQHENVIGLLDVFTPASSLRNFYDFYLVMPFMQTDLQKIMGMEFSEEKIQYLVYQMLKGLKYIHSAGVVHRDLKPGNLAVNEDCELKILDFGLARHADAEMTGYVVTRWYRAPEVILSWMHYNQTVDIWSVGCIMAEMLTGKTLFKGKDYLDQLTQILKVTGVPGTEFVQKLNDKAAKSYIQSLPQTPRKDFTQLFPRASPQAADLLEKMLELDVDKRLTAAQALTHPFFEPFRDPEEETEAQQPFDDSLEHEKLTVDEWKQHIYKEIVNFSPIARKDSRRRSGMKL

[4] = target: T3, panel of more than 300 wild-type and mutant kinases (313 kinase panel) (Homo sapiens, UniProt P52564); details: kinase MAP2K6; compound at 1 μM
T3 sequence (P52564 1-334): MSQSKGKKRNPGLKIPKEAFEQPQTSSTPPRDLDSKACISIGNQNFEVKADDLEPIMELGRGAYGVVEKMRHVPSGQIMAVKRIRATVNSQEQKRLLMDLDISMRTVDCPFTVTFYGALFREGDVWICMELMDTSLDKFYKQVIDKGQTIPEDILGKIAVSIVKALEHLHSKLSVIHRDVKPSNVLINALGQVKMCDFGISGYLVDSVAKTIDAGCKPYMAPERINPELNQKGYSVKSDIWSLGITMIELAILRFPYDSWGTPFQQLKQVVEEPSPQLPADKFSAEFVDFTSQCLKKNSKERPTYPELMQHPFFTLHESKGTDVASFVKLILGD

[5] = target: panel of more than 300 wild-type and mutant kinases (313 kinase panel) (Homo sapiens, UniProt P27361)
[6] = target: panel of more than 300 wild-type and mutant kinases (313 kinase panel) (Homo sapiens, UniProt Q9P0L2)
[7] = target: panel of more than 300 wild-type and mutant kinases (313 kinase panel) (Homo sapiens, UniProt P42685); details: kinase FRK; compound at 1 μM
[8] = target: T4, panel of more than 300 wild-type and mutant kinases (313 kinase panel) (Homo sapiens, UniProt O15146)
T4 sequence (O15146 24-869): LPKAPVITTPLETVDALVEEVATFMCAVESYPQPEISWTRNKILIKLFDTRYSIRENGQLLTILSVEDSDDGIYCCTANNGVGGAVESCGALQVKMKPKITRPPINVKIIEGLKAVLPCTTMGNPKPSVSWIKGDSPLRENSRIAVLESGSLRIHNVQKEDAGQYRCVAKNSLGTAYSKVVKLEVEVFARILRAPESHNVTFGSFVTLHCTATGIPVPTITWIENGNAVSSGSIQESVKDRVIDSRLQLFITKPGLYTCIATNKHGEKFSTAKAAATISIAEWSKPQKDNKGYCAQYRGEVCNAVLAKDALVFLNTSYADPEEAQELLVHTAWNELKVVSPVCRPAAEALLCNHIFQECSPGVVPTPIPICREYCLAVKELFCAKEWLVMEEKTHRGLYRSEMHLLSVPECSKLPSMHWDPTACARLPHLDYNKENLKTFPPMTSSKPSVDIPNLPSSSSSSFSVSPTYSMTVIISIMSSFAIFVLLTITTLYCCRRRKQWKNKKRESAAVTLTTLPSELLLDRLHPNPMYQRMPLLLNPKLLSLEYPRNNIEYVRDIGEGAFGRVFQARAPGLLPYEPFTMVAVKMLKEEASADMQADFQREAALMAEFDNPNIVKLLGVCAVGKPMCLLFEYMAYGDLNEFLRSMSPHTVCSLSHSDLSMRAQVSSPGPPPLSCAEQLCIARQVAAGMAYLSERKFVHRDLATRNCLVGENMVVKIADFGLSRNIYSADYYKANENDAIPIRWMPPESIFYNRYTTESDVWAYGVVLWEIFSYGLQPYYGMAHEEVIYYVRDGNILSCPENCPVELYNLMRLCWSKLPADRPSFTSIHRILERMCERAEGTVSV

[9] = target: panel of more than 300 wild-type and mutant kinases (313 kinase panel) (Homo sapiens, UniProt Q8IU85); details: kinase CaMK1δ; 1 μM compound

Chain of panel of more than 300 wild-type and mutant kinases (313 kinase panel) (Homo sapiens, UniProt P42685) (P42685 whole entry, change not shown): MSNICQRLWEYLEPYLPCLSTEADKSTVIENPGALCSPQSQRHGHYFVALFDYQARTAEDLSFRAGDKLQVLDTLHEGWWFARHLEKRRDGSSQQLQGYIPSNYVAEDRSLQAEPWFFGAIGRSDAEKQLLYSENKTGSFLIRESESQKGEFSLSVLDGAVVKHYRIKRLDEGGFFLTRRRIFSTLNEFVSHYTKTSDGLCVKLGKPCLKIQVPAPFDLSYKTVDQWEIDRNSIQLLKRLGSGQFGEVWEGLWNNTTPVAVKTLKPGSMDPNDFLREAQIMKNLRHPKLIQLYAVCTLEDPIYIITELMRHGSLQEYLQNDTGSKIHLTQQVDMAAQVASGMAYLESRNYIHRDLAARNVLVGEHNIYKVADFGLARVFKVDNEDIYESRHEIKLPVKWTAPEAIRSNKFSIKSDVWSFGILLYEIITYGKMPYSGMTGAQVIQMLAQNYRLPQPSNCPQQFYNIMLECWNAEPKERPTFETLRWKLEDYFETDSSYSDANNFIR
Chain of panel of more than 300 wild-type and mutant kinases (313 kinase panel) (Homo sapiens, UniProt Q9P0L2) (Q9P0L2 whole entry, change not shown): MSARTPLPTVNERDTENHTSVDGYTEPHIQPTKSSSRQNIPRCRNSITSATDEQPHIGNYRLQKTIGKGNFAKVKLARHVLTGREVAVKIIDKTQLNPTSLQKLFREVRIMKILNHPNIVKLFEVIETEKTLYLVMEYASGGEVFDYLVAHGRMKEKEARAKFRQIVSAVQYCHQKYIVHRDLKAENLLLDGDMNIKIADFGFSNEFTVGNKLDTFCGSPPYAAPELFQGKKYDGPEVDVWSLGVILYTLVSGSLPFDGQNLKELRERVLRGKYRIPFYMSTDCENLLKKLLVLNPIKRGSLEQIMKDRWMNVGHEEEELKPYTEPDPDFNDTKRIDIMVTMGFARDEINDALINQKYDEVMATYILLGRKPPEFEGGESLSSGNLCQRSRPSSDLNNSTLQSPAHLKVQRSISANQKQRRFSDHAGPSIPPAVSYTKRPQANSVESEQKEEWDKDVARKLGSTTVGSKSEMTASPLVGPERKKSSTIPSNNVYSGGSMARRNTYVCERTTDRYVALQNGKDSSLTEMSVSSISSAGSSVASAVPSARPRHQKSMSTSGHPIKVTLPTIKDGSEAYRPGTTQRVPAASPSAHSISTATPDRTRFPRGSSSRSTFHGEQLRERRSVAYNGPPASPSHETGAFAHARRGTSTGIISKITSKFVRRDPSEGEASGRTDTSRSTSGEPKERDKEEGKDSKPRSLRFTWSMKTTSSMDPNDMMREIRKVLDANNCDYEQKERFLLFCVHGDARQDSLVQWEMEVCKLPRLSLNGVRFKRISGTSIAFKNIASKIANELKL
Chain of panel of more than 300 wild-type and mutant kinases (313 kinase panel) (Homo sapiens, UniProt P27361) (P27361 whole entry, change not shown): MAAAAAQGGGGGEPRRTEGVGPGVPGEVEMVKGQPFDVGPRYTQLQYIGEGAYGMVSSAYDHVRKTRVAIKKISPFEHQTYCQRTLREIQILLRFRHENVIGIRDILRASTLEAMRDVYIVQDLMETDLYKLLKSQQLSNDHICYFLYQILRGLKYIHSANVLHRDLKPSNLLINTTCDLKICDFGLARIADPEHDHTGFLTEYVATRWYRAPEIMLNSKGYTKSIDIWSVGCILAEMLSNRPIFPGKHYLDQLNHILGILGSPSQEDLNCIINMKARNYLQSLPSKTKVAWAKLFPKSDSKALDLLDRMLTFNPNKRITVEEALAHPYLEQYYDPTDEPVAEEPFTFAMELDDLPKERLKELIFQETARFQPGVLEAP
Chain of panel of more than 300 wild-type and mutant kinases (313 kinase panel) (Homo sapiens, UniProt P49759) (P49759 whole entry, change not shown): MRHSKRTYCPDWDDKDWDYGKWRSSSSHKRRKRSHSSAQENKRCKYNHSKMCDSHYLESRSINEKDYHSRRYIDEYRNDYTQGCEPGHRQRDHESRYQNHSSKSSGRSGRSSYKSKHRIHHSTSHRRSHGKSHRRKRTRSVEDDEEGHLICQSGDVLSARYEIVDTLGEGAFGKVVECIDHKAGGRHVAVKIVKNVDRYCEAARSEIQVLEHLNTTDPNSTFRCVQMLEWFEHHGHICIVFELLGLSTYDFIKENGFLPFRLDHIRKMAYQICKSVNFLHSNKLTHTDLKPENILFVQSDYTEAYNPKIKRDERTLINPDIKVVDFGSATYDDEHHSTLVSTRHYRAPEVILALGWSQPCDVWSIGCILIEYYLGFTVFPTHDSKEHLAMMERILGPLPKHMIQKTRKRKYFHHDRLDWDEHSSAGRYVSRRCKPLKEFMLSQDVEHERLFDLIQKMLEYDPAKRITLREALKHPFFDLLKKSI

Compound	%-inhibition, CLK1 [1]	%-inhibition of IRAK4 ([2]; kinase IRAK4, compound at 1 μM)	%-inhibition of p38δ [3]	%-inhibition of MAP2K6 [4]	%-inhibition of Erk1 ([5]; kinase Erk1, compound at 1 μM)	%-inhibition of MARK1 ([6]; kinase MARK1, compound at 1 μM)	%-inhibition of FRK [7]	%-inhibition of MUSK ([8]; kinase MUSK, 1 μM)	%-inhibition, CaMK1δ [9]	%-inhibition of MUSK ([8]; 1 µM)	%-inhibition of IRAK4 ([2]; 1 µM)	%-inhibition of Erk1 ([5]; 1 µM)	%-inhibition of MARK1 ([6]; 1 µM)
CCCS(=O)(=O)Nc1ccc(F)c(C(=O)c2c[nH]c3ncc(-c4ccc(Cl)cc4)cc23)c1F [vemurafenib]	5%	-4.29%	8%	31%	0.0533%	-9%	62%	-0.285%	-7%				
CCN(CC)CCNC(=O)c1c(C)[nH]c(/C=C2\C(=O)Nc3ccc(F)cc32)c1C [sunitinib]		48%						99%					
Cc1cn(-c2cc(NC(=O)c3ccc(C)c(Nc4nccc(-c5cccnc5)n4)c3)cc(C(F)(F)F)c2)cn1 [nilotinib]	81%	-29%	-10%	84%	3.21%	12%	70%		3.56%	42%			
Cc1nc(Nc2ncc(C(=O)Nc3c(C)cccc3Cl)s2)cc(N2CCN(CCO)CC2)n1 [dasatinib]			0.799%	47%									
Cc1ccc(Nc2nccc(N(C)c3ccc4c(C)n(C)nc4c3)n2)cc1S(N)(=O)=O [pazopanib]	7.57%	-0.622%	-0.586%	78%	-3.79%	2.19%		9%	-1.49%				
N#CC[C@H](C1CCCC1)n1cc(-c2ncnc3[nH]ccc23)cn1 [ruxolitinib]	33%		0.0923%	44%	-2.29%		7%	56%			-3.69%		
COc1cc(Nc2c(C#N)cnc3cc(OCCCN4CCN(C)CC4)c(OC)cc23)c(Cl)cc1Cl [bosutinib]		27%					94%	58%				1.12%	31%
CO[C@H]1C[C@@H]2CC[C@@H](C)[C@@](O)(O2)C(=O)C(=O)N2CCCC[C@H]2C(=O)O[C@H]([C@H](C)C[C@@H]2CC[C@@H](OC(=O)C(C)(CO)CO)[C@H](OC)C2)CC(=O)[C@H](C)/C=C(\C)[C@@H](O)[C@@H](OC)C(=O)[C@H](C)C[C@H](C)/C=C/C=C/C=C/1C [temsirolimus]		-5.36%	-5.63%	15%	0.373%	-5%	-11%	-9%	-7%				
